Test results: PubChem BioAssay (NCI)
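Growth conditions: 96-well plates. Treatment: test compound, 48 hours, 5 concentrations. Analysis: linear interpolation between bracketing concentrations; unreached endpoints set to highest concentration. Definition used: TGI = concentration required for complete inhibition of growth.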

How the values were obtained:
Assay in all cases: NCI-60 cell line screen, 48 h
CAKI-1 renal = test system: CAKI-1 renal
NCI-H460 lung = test system: NCI-H460 lung
786-0 renal = test system: 786-0 renal
A549 NSCLC = test system: A549 NSCLC
MDA-MB-435 = test system: MDA-MB-435
NCI-H226 lung = test system: NCI-H226 lung
TK-10 renal = test system: TK-10 renal
HS 578T breast = test system: HS 578T breast
SF-539 CNS = test system: SF-539 CNS
SNB-75 CNS = test system: SNB-75 CNS
A498 renal = test system: A498 renal
UACC-62 melanoma = test system: UACC-62 melanoma
CCRF-CEM leukemia = test system: CCRF-CEM leukemia
ACHN renal = test system: ACHN renal
HOP-62 NSCLC = test system: HOP-62 NSCLC
K-562 leukemia = test system: K-562 leukemia
LOX IMVI melanoma = test system: LOX IMVI melanoma
COLO 205 colon = test system: COLO 205 colon
BT-549 breast = test system: BT-549 breast
M14 melanoma = test system: M14 melanoma
MCF7 breast = test system: MCF7 breast
HOP-92 NSCLC = test system: HOP-92 NSCLC
DU-145 prostate = test system: DU-145 prostate
HCT-116 colon = test system: HCT-116 colon
HL-60(TB) leukemia = test system: HL-60(TB) leukemia
NCI-H522 lung = test system: NCI-H522 lung
HCT-15 colon = test system: HCT-15 colon
U251 CNS = test system: U251 CNS
UO-31 renal = test system: UO-31 renal
SN12C renal = test system: SN12C renal
KM12 colon = test system: KM12 colon
HT29 colon = test system: HT29 colon
HCC-2998 colon = test system: HCC-2998 colon
PC-3 prostate = test system: PC-3 prostate
SK-MEL-28 melanoma = test system: SK-MEL-28 melanoma
OVCAR-4 ovarian = test system: OVCAR-4 ovarian
RPMI-8226 leukemia = test system: RPMI-8226 leukemia
MALME-3M melanoma = test system: MALME-3M melanoma
SW-620 colon = test system: SW-620 colon
SK-MEL-2 melanoma = test system: SK-MEL-2 melanoma
MDA-N = test system: MDA-N
OVCAR-5 ovarian = test system: OVCAR-5 ovarian
NCI-H23 lung = test system: NCI-H23 lung
UACC-257 melanoma = test system: UACC-257 melanoma
IGROV1 ovarian = test system: IGROV1 ovarian
OVCAR-3 ovarian = test system: OVCAR-3 ovarian
SNB-19 CNS = test system: SNB-19 CNS
T-47D breast = test system: T-47D breast
NCI/ADR-RES ovarian = test system: NCI/ADR-RES ovarian
SF-268 CNS = test system: SF-268 CNS
SK-MEL-5 melanoma = test system: SK-MEL-5 melanoma
EKVX NSCLC = test system: EKVX NSCLC
OVCAR-8 ovarian = test system: OVCAR-8 ovarian
MDA-MB-231 breast = test system: MDA-MB-231 breast
MOLT-4 leukemia = test system: MOLT-4 leukemia
SK-OV-3 ovarian = test system: SK-OV-3 ovarian
RXF 393 renal = test system: RXF 393 renal
SF-295 CNS = test system: SF-295 CNS
SR leukemia = test system: SR leukemia

Cc1nc2c(o1)C(=O)c1ccccc1C2=NC1CCCCC1N (configuration not stated)
TGI (CAKI-1 renal): 3.12 µM
TGI (NCI-H460 lung): 3.15 µM
TGI (786-0 renal): 3.43 µM
TGI (A549 NSCLC): 2.91 µM
TGI (MDA-MB-435): 302 nM
TGI (NCI-H226 lung): 3.75 µM
TGI (TK-10 renal): 3.84 µM
TGI (HS 578T breast): 2760 nM
TGI (SF-539 CNS): 1.08 µM
TGI (SNB-75 CNS): 0.564 µM
TGI (A498 renal): 3.12 µM
TGI (UACC-62 melanoma): 0.318 µM
TGI (CCRF-CEM leukemia): 1280 nM
TGI (ACHN renal): 2 µM
TGI (HOP-62 NSCLC): 2300 nM
TGI (K-562 leukemia): > 100 µM
TGI (LOX IMVI melanoma): 0.66 µM
TGI (COLO 205 colon): 3.08 µM
TGI (BT-549 breast): 1.29 µM
TGI (M14 melanoma): 1.53 µM
TGI (MCF7 breast): 900 nM
TGI (HOP-92 NSCLC): 1.97 µM
TGI (DU-145 prostate): 2.8 µM
TGI (HCT-116 colon): 0.729 µM
TGI (HL-60(TB) leukemia): 749 nM
TGI (NCI-H522 lung): 2.33 µM
TGI (HCT-15 colon): 1840 nM
TGI (U251 CNS): 1.32 µM
TGI (UO-31 renal): 3 µM
TGI (SN12C renal): 1160 nM
TGI (KM12 colon): 3.18 µM
TGI (HT29 colon): 5.33 µM
TGI (HCC-2998 colon): 3.02 µM
TGI (PC-3 prostate): 3.46 µM
TGI (SK-MEL-28 melanoma): 0.313 µM
TGI (OVCAR-4 ovarian): 1.01 µM
TGI (RPMI-8226 leukemia): 4.2 µM
TGI (MALME-3M melanoma): 275 nM
TGI (SW-620 colon): 1.38 µM
TGI (SK-MEL-2 melanoma): 2.53 µM
TGI (MDA-N): 343 nM
TGI (OVCAR-5 ovarian): 3.24 µM
TGI (NCI-H23 lung): 276 nM
TGI (UACC-257 melanoma): 0.321 µM
TGI (IGROV1 ovarian): 2.89 µM
TGI (OVCAR-3 ovarian): 1.66 µM
TGI (SNB-19 CNS): 2.1 µM
TGI (T-47D breast): 1.86 µM
TGI (NCI/ADR-RES ovarian): 1200 nM
TGI (SF-268 CNS): 3.82 µM
TGI (SK-MEL-5 melanoma): 252 nM
TGI (EKVX NSCLC): 2.92 µM
TGI (OVCAR-8 ovarian): 1.21 µM
TGI (MDA-MB-231 breast): 2750 nM
TGI (MOLT-4 leukemia): 1460 nM

O=[N+]([O-])c1cccc(N=C2c3ccccc3CN2c2cccc([N+](=O)[O-])c2)c1
TGI (CAKI-1 renal): > 100 µM
TGI (NCI-H460 lung): > 100 µM
TGI (786-0 renal): > 100 µM
TGI (A549 NSCLC): > 100 µM
TGI (MDA-MB-435): > 100000 nM
TGI (NCI-H226 lung): > 100 µM
TGI (SK-OV-3 ovarian): > 100 µM
TGI (TK-10 renal): > 100 µM
TGI (HS 578T breast): > 100000 nM
TGI (SF-539 CNS): > 100 µM
TGI (SNB-75 CNS): 73.5 µM
TGI (RXF 393 renal): > 100000 nM
TGI (SF-295 CNS): > 100 µM
TGI (A498 renal): > 100 µM
TGI (UACC-62 melanoma): > 100 µM
TGI (ACHN renal): > 100 µM
TGI (HOP-62 NSCLC): > 100000 nM
TGI (K-562 leukemia): > 100 µM
TGI (LOX IMVI melanoma): > 100 µM
TGI (COLO 205 colon): > 100 µM
TGI (BT-549 breast): > 100 µM
TGI (M14 melanoma): > 100 µM
TGI (MCF7 breast): > 100000 nM
TGI (HOP-92 NSCLC): > 100 µM
TGI (DU-145 prostate): > 100 µM
TGI (HCT-116 colon): > 100 µM
TGI (NCI-H522 lung): > 100 µM
TGI (HCT-15 colon): > 100000 nM
TGI (U251 CNS): > 100 µM
TGI (UO-31 renal): > 100 µM
TGI (SN12C renal): > 100000 nM
TGI (KM12 colon): > 100 µM
TGI (HT29 colon): > 100 µM
TGI (HCC-2998 colon): > 100 µM
TGI (PC-3 prostate): > 100 µM
TGI (SK-MEL-28 melanoma): > 100 µM
TGI (OVCAR-4 ovarian): > 100 µM
TGI (RPMI-8226 leukemia): > 100 µM
TGI (SW-620 colon): > 100 µM
TGI (SK-MEL-2 melanoma): > 100 µM
TGI (MDA-N): > 100000 nM
TGI (OVCAR-5 ovarian): > 100 µM
TGI (NCI-H23 lung): > 100000 nM
TGI (UACC-257 melanoma): > 100 µM
TGI (IGROV1 ovarian): > 100 µM
TGI (OVCAR-3 ovarian): > 100 µM
TGI (SNB-19 CNS): > 100 µM
TGI (T-47D breast): > 100 µM
TGI (SF-268 CNS): > 100 µM
TGI (SK-MEL-5 melanoma): > 100000 nM
TGI (EKVX NSCLC): > 100 µM
TGI (OVCAR-8 ovarian): > 100 µM
TGI (MDA-MB-231 breast): > 100000 nM
TGI (MOLT-4 leukemia): > 100000 nM

COc1ncnc2c1cnn2Cc1cn(COCC(O)CO)nn1 (configuration not stated)
TGI (CAKI-1 renal): > 100 µM
TGI (786-0 renal): > 100 µM
TGI (A549 NSCLC): > 100 µM
TGI (MDA-MB-435): > 100000 nM
TGI (NCI-H226 lung): > 100 µM
TGI (SK-OV-3 ovarian): > 100 µM
TGI (TK-10 renal): > 100 µM
TGI (SF-539 CNS): > 100 µM
TGI (SR leukemia): > 100000 nM
TGI (SF-295 CNS): > 100 µM
TGI (A498 renal): > 100 µM
TGI (UACC-62 melanoma): > 100 µM
TGI (CCRF-CEM leukemia): > 100000 nM
TGI (ACHN renal): > 100 µM
TGI (HOP-62 NSCLC): > 100000 nM
TGI (K-562 leukemia): > 100 µM
TGI (LOX IMVI melanoma): > 100 µM
TGI (COLO 205 colon): > 100 µM
TGI (BT-549 breast): > 100 µM
TGI (M14 melanoma): > 100 µM
TGI (MCF7 breast): > 100000 nM
TGI (HOP-92 NSCLC): > 100 µM
TGI (DU-145 prostate): > 100 µM
TGI (HCT-116 colon): > 100 µM
TGI (HL-60(TB) leukemia): > 100000 nM
TGI (NCI-H522 lung): 26.2 µM
TGI (HCT-15 colon): > 100000 nM
TGI (U251 CNS): > 100 µM
TGI (UO-31 renal): > 100 µM
TGI (SN12C renal): > 100000 nM
TGI (KM12 colon): > 100 µM
TGI (HT29 colon): > 100 µM
TGI (HCC-2998 colon): > 100 µM
TGI (PC-3 prostate): > 100 µM
TGI (SK-MEL-28 melanoma): > 100 µM
TGI (OVCAR-4 ovarian): > 100 µM
TGI (RPMI-8226 leukemia): > 100 µM
TGI (SW-620 colon): > 100 µM
TGI (SK-MEL-2 melanoma): > 100 µM
TGI (MDA-N): > 100000 nM
TGI (OVCAR-5 ovarian): > 100 µM
TGI (NCI-H23 lung): > 100000 nM
TGI (UACC-257 melanoma): > 100 µM
TGI (IGROV1 ovarian): > 100 µM
TGI (OVCAR-3 ovarian): > 100 µM
TGI (SNB-19 CNS): > 100 µM
TGI (T-47D breast): > 100 µM
TGI (NCI/ADR-RES ovarian): > 100000 nM
TGI (SF-268 CNS): 35 µM
TGI (SK-MEL-5 melanoma): > 100000 nM
TGI (EKVX NSCLC): > 100 µM
TGI (OVCAR-8 ovarian): > 100 µM
TGI (MDA-MB-231 breast): > 100000 nM
TGI (MOLT-4 leukemia): > 100000 nM

CCN(CC)CCN1CCNc2c3cc(OC)ccc3nc3c([N+](=O)[O-])ccc1c23
TGI (CAKI-1 renal): > 10 µM
TGI (786-0 renal): 1.61 µM
TGI (A549 NSCLC): 9.07 µM
TGI (MDA-MB-435): 2690 nM
TGI (SK-OV-3 ovarian): > 10 µM
TGI (TK-10 renal): > 10 µM
TGI (SR leukemia): 1190 nM
TGI (SNB-75 CNS): 6.43 µM
TGI (RXF 393 renal): 2110 nM
TGI (SF-295 CNS): 4.28 µM
TGI (CCRF-CEM leukemia): 2320 nM
TGI (HOP-62 NSCLC): 2640 nM
TGI (K-562 leukemia): > 10 µM
TGI (LOX IMVI melanoma): 3.21 µM
TGI (MCF7 breast): 2980 nM
TGI (HOP-92 NSCLC): 6.18 µM
TGI (DU-145 prostate): > 10 µM
TGI (HL-60(TB) leukemia): 2120 nM
TGI (HCT-15 colon): 2470 nM
TGI (SN12C renal): 2360 nM
TGI (KM12 colon): 6.21 µM
TGI (HT29 colon): 6.39 µM
TGI (HCC-2998 colon): 2.03 µM
TGI (PC-3 prostate): 2.25 µM
TGI (OVCAR-4 ovarian): 3.12 µM
TGI (RPMI-8226 leukemia): 2.87 µM
TGI (MALME-3M melanoma): 3230 nM
TGI (SW-620 colon): 5.4 µM
TGI (MDA-N): 2270 nM
TGI (NCI-H23 lung): 2440 nM
TGI (UACC-257 melanoma): 5.7 µM
TGI (IGROV1 ovarian): 9.25 µM
TGI (T-47D breast): > 10 µM
TGI (SF-268 CNS): > 10 µM
TGI (SK-MEL-5 melanoma): 2920 nM
TGI (EKVX NSCLC): 4.68 µM
TGI (OVCAR-8 ovarian): > 10 µM
TGI (MDA-MB-231 breast): 2230 nM
TGI (MOLT-4 leukemia): 1420 nM
